Laboratory results as given in US9266842B2, “Anti-malarial agents” (UNIVERSITY OF CAPE TOWN, priority 2012, dated 2016).
Values after ≈ are worked out from the molar mass of the structure shown.

Columns and labels:
P. falciparum K1 = assay: Anti-malarial in vitro efficacy, assay 1, P. falciparum K1; assay type: cell-based; conditions: Plasmodium falciparum, strain K1
Protocol: (§1) The ability of aminopyrazine derivatives according to the invention to kill P. falciparum parasites and/or to inhibit its proliferation is tested as follows:
(§2) The protocol used was as described in the supplemental material to Fiddock et al., 2004, Nature Reviews Drug Discovery, (3), p 509.
(§3) EC50s (ng/ml) are reported in Table 3 below against different strains of P. falciparum K1, NF54 (assay 1).

P. falciparum NF54 = assay: Anti-malarial in vitro efficacy, assay 1, P. falciparum NF54; assay type: cell-based; conditions: Plasmodium falciparum, strain NF54
Protocol: as §1, §2, §3

parasitemia = assay: Anti-malarial in vivo efficacy, inhibition of parasitemia after 4 daily oral doses; conditions: for inhibition in vivo at 3 mg/kg: read-out: percentages of inhibition of parasitemia, 3 mg/kg po; for inhibition in vivo at 10 mg/kg: read-out: percentages of inhibition of parasitemia, 10 mg/kg po
From the text: The ability of aminopyrazine derivatives according to the invention to show antimalarial efficacy in vivo can be tested by using the protocols described in the supplemental material to Fidock et al., 2004, Nature Reviews Drug Discovery, (3), p 509.

| Structure (SMILES) | EC50 (P. falciparum K1) [ng/mL] | EC50 (P. falciparum NF54) [ng/mL] | inhibition in vivo at 3 mg/kg (parasitemia) [%] | inhibition in vivo at 10 mg/kg (parasitemia) [%] |
| --- | --- | --- | --- | --- |
| NC(=O)c1ccc(-c2cnc(N)c(-c3ccc(C(F)(F)F)cc3)n2)cc1 [Compound 4, 4-(5-amino-6-(4-(trifluoromethyl)phenyl)pyrazin-2-yl)benzamide] | 4.9 (≈ 13.7 nM) | 5.7 (≈ 15.9 nM) | 99.9 | 99.9 |
| CN1CCN(C(=O)c2ccc(-c3cnc(N)c(-c4ccc(C(F)(F)F)cc4)n3)cc2)CC1 [Compound 6, (4-(5-amino-6-(4-(trifluoromethyl)phenyl)pyrazin-2-yl)phenyl)(4-methylpiperazin-1-yl) methanone] | 3 (≈ 6.8 nM) | 3.5 (≈ 7.93 nM) | 99.9 | 99.9 |
| Nc1ncc(-c2ccc(S(=O)(=O)C3CC3)cc2)nc1-c1ccc(C(F)(F)F)nc1 [Compound 34, 5-(4-(cyclopropylsulfonyl)phenyl)-3-(6-(trifluoromethyl)pyridin-3-yl) pyrazin-2-amine] | 4 (≈ 9.51 nM) |  |  |  |
| COc1ccc(-c2nc(-c3ccc(S(C)(=O)=O)cc3)cnc2N)cn1 [Compound 1, 3-(6-methoxypyridin-3-yl)-5-(4-(methylsulfonyl)phenyl)pyrazin-2-amine] | 17 (≈ 47.7 nM) |  |  |  |
| CN1CCCN(C(=O)c2ccc(-c3cnc(N)c(-c4ccc(C(F)(F)F)cc4)n3)cc2)CC1 [Compound 25, (4-(5-amino-6-(4-(trifluoromethyl)phenyl)pyrazin-2-yl)phenyl)(4-methyl-1,4-diazepan-1-yl)methanone] | 2.6 (≈ 5.71 nM) | 3.1 (≈ 6.81 nM) | 90 |  |
| Nc1ncc(-c2ccc(C(=O)N3CCC(N)CC3)cc2)nc1-c1ccc(C(F)(F)F)nc1 [Compound 31, (4-(5-amino-6-(6-(trifluoromethyl)pyridin-3-yl)pyrazin-2-yl)phenyl)(4-aminopiperidinyl)methanone] | 7.6 (≈ 17.2 nM) | 8.5 (≈ 19.2 nM) |  |  |
| NC(=O)c1ccc(-c2cnc(N)c(-c3ccc(C(N)=O)cc3)n2)cc1 [Compound 15, 4,4′-(3-aminopyrazine-2,6-diyl) dibenzamide] | 7.1 (≈ 21.3 nM) | 8.5 (≈ 25.5 nM) |  |  |
| Nc1ncc(-c2ccc(C(=O)N3CCNCC3)cc2)nc1-c1ccc(C(F)(F)F)cc1 [Compound 8, (4-(5-amino-6-(4-(trifluoromethyl)phenyl)pyrazin-2-yl)phenyl)(piperazin-1-yl)methanone] | 2.1 (≈ 4.91 nM) | 2.3 (≈ 5.38 nM) | 99.9 | 99.9 |
| Nc1ncc(-c2ccc(C(=O)N3CC[C@H](O)C3)cc2)nc1-c1ccc(C(F)(F)F)cc1 [Compound 36, (S)-(4-(5-amino-6-(4-(trifluoro-methyl)phenyl)pyrazin-2-yl)phenyl)(3-hydroxypyrrolidin-1-yl)methanone] |  | 2.6 (≈ 6.07 nM) | 99.9 | 99.9 |
| Nc1ncc(-c2ccc(C(=O)N3CC[C@@H](O)C3)cc2)nc1-c1ccc(C(F)(F)F)cc1 [Compound 35, (R)-(4-(5-amino-6-(4-(trifluoro-methyl)phenyl)pyrazin-2-yl)phenyl)(3-hydroxypyrrolidin-1-yl) methanone] |  | 3.2 (≈ 7.47 nM) | 99.9 | 99.9 |
| Nc1ncc(-c2ccc(C(=O)N3CCCNCC3)cc2)nc1-c1ccc(C(F)(F)F)nc1 [Compound 26, (4-(5-amino-6-(6-(trifluoromethyl)pyridin-3-yl)pyrazin-2-yl)phenyl) (1,4-diazepan-1-yl)methanone] | 4.3 (≈ 9.72 nM) | 5.9 (≈ 13.3 nM) |  |  |
| CS(=O)(=O)c1ccc(-c2cnc(N)c(-c3ccc(C(F)(F)F)cc3)n2)cc1 [Compound 2, 5-(4-(methylsulfonyl)phenyl)-3-(4-(trifluoromethyl)phenyl)pyrazin-2-amine] | 4 (≈ 10.2 nM) |  |  |  |
| CN1CCN(C(=O)c2ccc(-c3cnc(N)c(-c4ccc(C(F)(F)F)nc4)n3)cc2)CC1 [Compound 7, (4-(5-amino-6-(6-(trifluoromethyl)pyridin-3-yl)pyrazin-2-yl)phenyl)(4-methylpiperazin-1-yl)methanone] | 4.4 (≈ 9.94 nM) | 4.4 (≈ 9.94 nM) | 81 | 99.8 |
| Nc1ncc(-c2ccc(C(=O)N3CCOCC3)cc2)nc1-c1ccc(C(F)(F)F)cc1 [Compound 11, (4-(5-amino-6-(4-(trifluoromethyl)phenyl)pyrazin-2-yl)phenyl)(morpholino)methanone] | 3.1 (≈ 7.24 nM) |  |  |  |
| Nc1ncc(-c2ccc(C(=O)N3CCC(O)C3)cc2)nc1-c1ccc(C(F)(F)F)cc1 (centres unmarked) [Compound 21, (4-(5-amino-6-(4-(trifluoromethyl)phenyl)pyrazin-2-yl)phenyl)(3-hydroxypyrrolidin-1-yl)methanone] | 2.9 (≈ 6.77 nM) | 4.1 (≈ 9.57 nM) | 99.6 |  |
| Nc1ncc(-c2ccc(C(=O)N3CCC(N)C3)cc2)nc1-c1ccc(C(F)(F)F)cc1 (centres unmarked) [Compound 29, (4-(5-amino-6-(4-(trifluoromethyl)phenyl)pyrazin-2-yl)phenyl)(3-aminopyrrolidin-1-yl)methanone] | 4.8 (≈ 11.2 nM) | 8.8 (≈ 20.6 nM) |  |  |
| NC(=O)c1ccc(-c2cnc(N)c(-c3ccc(C(F)(F)F)c(F)c3)n2)cc1 [Compound 13, 4-(5-amino-6-(3-fluoro-4-(trifluoro-methyl)phenyl)pyrazin-2-yl) benzamide] | 18 (≈ 47.8 nM) | 18 (≈ 47.8 nM) | 99.9 | 99.9 |
| CC(C)(C)N1CCN(C(=O)c2ccc(-c3cnc(N)c(-c4ccc(C(F)(F)F)nc4)n3)cc2)CC1 [Compound 24, (4-(5-amino-6-(6-(trifluoromethyl)pyridin-3-yl)pyrazin-2-yl)phenyl)(4-(tert-butyl)piperazin-1-yl)methanone] | 3.1 (≈ 6.4 nM) | 4.3 (≈ 8.87 nM) | 87.6 |  |
| CC(C)(C)N1CCN(C(=O)c2ccc(-c3cnc(N)c(-c4ccc(C(F)(F)F)cc4)n3)cc2)CC1 [Compound 20, (4-(5-amino-6-(4-(trifluoromethyl)phenyl)pyrazin-2-yl)phenyl)(4-tert-butylpiperazin-1-yl)methanone] | 5.5 (≈ 11.4 nM) | 8.2 (≈ 17 nM) |  |  |
| Nc1ncc(-c2ccc(C(=O)N3CCCNCC3)cc2)nc1-c1ccc(C(F)(F)F)cc1 [Compound 27, (4-(5-amino-6-(4-(trifluoromethyl)phenyl)pyrazin-2-yl)phenyl)(1,4-diazepan-1-yl)methanone] | 2.2 (≈ 4.98 nM) | 3.2 (≈ 7.25 nM) | 88 |  |
| CS(=O)(=O)c1ccc(-c2cnc(N)c(-c3ccc(C(F)(F)F)nc3)n2)cc1 [Compound 3, 5-(4-(methylsulfonyl)phenyl)-3-(6-(trifluoromethyl)pyridin-3-yl)pyrazin-2-amine] | 4.8 (≈ 12.2 nM) |  |  |  |
| Nc1ncc(-c2ccc(C(=O)N3CCC(O)CC3)cc2)nc1-c1ccc(C(F)(F)F)nc1 [Compound 22, (4-(5-amino-6-(6-(trifluoromethyl)pyridin-3-yl)pyrazin-2-yl)phenyl)(4-hydroxypiperidin-1-yl)methanone] | 4 (≈ 9.02 nM) | 4.5 (≈ 10.1 nM) |  |  |
| Nc1ncc(-c2ccc(C(=O)N3CCOCC3)cc2)nc1-c1ccc(C(F)(F)F)nc1 [Compound 10, (4-(5-amino-6-(6-(trifluoromethyl)pyridin-3-yl)pyrazin-2-yl)phenyl) (morpholino) methanone] | 4.1 (≈ 9.55 nM) |  |  |  |
| Nc1ncc(-c2ccc(C(=O)N3CCC(O)C3)cc2)nc1-c1ccc(C(F)(F)F)nc1 (centres unmarked) [Compound 30, (4-(5-amino-6-(6-(trifluoromethyl)pyridin-3-yl)pyrazin-2-yl)phenyl)(3-hydroxypyrrolidin-1-yl)methanone] | 5.2 (≈ 12.1 nM) | 8.6 (≈ 20 nM) |  |  |
| Nc1ncc(-c2ccc(C(=O)N3CCC(N)CC3)cc2)nc1-c1ccc(C(F)(F)F)cc1 [Compound 32, (4-(5-amino-6-(4-(trifluoromethyl)phenyl)pyrazin-2-yl)phenyl)(4-aminopiperidinyl)methanone] | 2.9 (≈ 6.57 nM) | 4.3 (≈ 9.74 nM) |  |  |
| Nc1ncc(-c2ccc(C(=O)N3CCC(O)CC3)cc2)nc1-c1ccc(C(F)(F)F)cc1 [Compound 23, (4-(5-amino-6-(4-(trifluoromethyl)phenyl)pyrazin-2-yl)phenyl)(4-hydroxypiperidin-1-yl)methanone] | 2.2 (≈ 4.97 nM) | 2.4 (≈ 5.42 nM) | 98.7 |  |
| NC(=O)c1ccc(-c2cnc(N)c(-c3ccc(C(F)(F)F)nc3)n2)cc1 [Compound 5, 4-(5-amino-6-(6-(trifluoromethyl)pyridin-3-yl)pyrazin-2-yl)benzamide] | 5.8 (≈ 16.1 nM) | 7.8 (≈ 21.7 nM) | 99.4 | 99.9 |
| CN1CCCN(C(=O)c2ccc(-c3cnc(N)c(-c4ccc(C(F)(F)F)nc4)n3)cc2)CC1 [Compound 12, (4-(5-amino-6-(6-(trifluoromethyl)pyridin-3-yl)pyrazin-2-yl)phenyl)(4-methyl-1,4-diazepan-1-yl)methanone] | 4.5 (≈ 9.86 nM) | 6.9 (≈ 15.1 nM) | 99.9 |  |
| Nc1ncc(-c2ccc(C(=O)N3CCNCC3)cc2)nc1-c1ccc(C(F)(F)F)nc1 [Compound 9, (4-(5-amino-6-(6-(trifluoromethyl)pyridin-3-yl)pyrazin-2-yl)phenyl)(piperazin-1-yl) methanone] | 4 (≈ 9.34 nM) | 4.6 (≈ 10.7 nM) |  |  |
| Nc1ncc(-c2ccc(C(=O)N3CCC(N)C3)cc2)nc1-c1ccc(C(F)(F)F)nc1 (centres unmarked) [Compound 28, (4-(5-amino-6-(6-(trifluoromethyl)pyridin-3-yl)pyrazin-2-yl)phenyl)(3-aminopyrrolidin-1-yl)methanone] | 10 (≈ 23.3 nM) | 17 (≈ 39.7 nM) |  |  |
